Data: patent publication US9585871B2, “Method for treating and curing leishmaniosis using fexinidazole” (Merial Limited, priority 2013, dated 2017)

System: L. infantum
Assay: Clinical study in dogs infected with L. infantum: Overall Biological Score
Assay type: in vivo
Parameters: key: additive score of severity of hematology/chemistry changes
Details: samples collected on D16 (printed in Day 28 column), Group 1 Block 8 dog removed for toxicity; Glucantime 100 mg/kg dNMA SC once daily

For meglumine antimoniate [Glucantime], the “Overall Biological Score” value was 5^2.
